18 compounds from PMC7022718, “Composition and Insecticidal Activity of Essential Oil of Bacopa caroliniana and Interactive Effects of Individual Compounds on the Activity” (Insects, 2019) can be followed below.

A value given as a limit tells only on which side of the number the result lay.

In the experiment the test system is T1, acetylcholine esterase (AChE), crude, from rice weevil.
T1 construct: gene ace1; native, unpurified; supernatant of whole adult homogenate in phosphate buffer pH 7.4 (8775 g, 20 min)
In words: Ellman colorimetric assay, […] nm. Format: biochemical, Sitophilus oryzae. The settings on record: crude enzyme; acetylthiocholine iodide 2.5 mM, pH 7.4, 35 °C, 15 min preincubation, compound in ethanol.
In the case of `CC12CCC(CC1)C(C)(C)O2` [1,8-Cineole], the “AChE-IC50 (μL mL^-1)” value is reported as 31.13 ± 2.20 µL mL^−1.
Regarding `C=CC(O)CCCCC` (stereo not drawn) [1-Octen-3-ol], the “AChE-IC50 (μL mL^-1)” value is on record as 14.82 ± 0.12 µL mL^−1.
In the case of `CC1=CCC(O)(C(C)C)CC1` (stereo not drawn) [4-Terpineol], the “AChE-IC50 (μL mL^-1)” value came to 11.29 ± 0.02 µL mL^−1.
As for `C=C1CC[C@H]2O[C@]2(C)CC[C@@H]2[C@@H]1CC2(C)C` [Caryophyllene oxide], the “AChE-IC50 (μL mL^-1)” value is > 500 µL mL^−1.
Under `CC(C)=CCCC(C)CCO` (stereo not drawn) [Citronellol] stands 86.08 ± 1.09 µL mL^−1; under `C=C(C)C1CC=C(C)CC1` (stereo not drawn) [Limonene], 9.57 ± 1.37 µL mL^−1; under `C=CC(C)(O)CCC=C(C)C` (stereo not drawn) [Linalool], 44.33 ± 1.31 µL mL^−1.
For `C=CC(C)(O)CCC=C(C)CCC=C(C)C` (stereo not drawn) [Nerolidol], the “AChE-IC50 (μL mL^-1)” value was found to be 331.24±21.55 µL mL^−1.
Next, `C=C1CCC2(C(C)C)CC12` (stereo not drawn) [Sabinene]: 85.03 ± 0.20 µL mL^−1.
Next, `Cc1ccc(C(C)C)cc1` [p-Cymene]: > 500 µL mL^−1; `CC1=CCC2CC1C2(C)C` (stereo not drawn) [α-Pinene]: 1.81 ± 0.20 µL mL^−1; `CC1=CC=C(C(C)C)CC1` [α-Terpinene]: > 500 µL mL^−1.
Under `CC1=CCC(C(C)(C)O)CC1` (stereo not drawn) [α-Terpineol] stands 18.39 ± 1.52 µL mL^−1.
On to `CC1=CCC(=C(C)C)CC1` [α-Terpinolene], for which the “AChE-IC50 (μL mL^-1)” value is listed as 1.10 ± 0.17 µL mL^−1.
Next, `C=C1CC/C=C(\C)CC[C@@H]2[C@@H]1CC2(C)C` [β-Caryophyllene]: > 500 µL mL^−1.
For `C=CC(=C)CCC=C(C)C` [β-Myrcene], the “AChE-IC50 (μL mL^-1)” value is reported as > 500 µL mL^−1.
Next, `C=C1CCC2CC1C2(C)C` (stereo not drawn) [β-Pinene]: > 500 µL mL^−1; `CC1=CCC(C(C)C)=CC1` [γ-Terpinene]: > 500 µL mL^−1.
